# Columns and labels:
# growth hormone release = assay: Growth Hormone--in vitro: growth hormone release inhibition in cultured rat pituitary cells; assay type: cell-based; conditions: multiples or fractions of the effect of somatostatin (=1), 4 hours incubation
# Procedure: Rat pituitaries were isolated according to the procedures of Vale and Grant "In vitro Pituitary Hormone Secretion Assay for Hypophysioprivic Substances" in Methods in Enzymology. Vol.XXXVII,eds. O'Malley, B. W. and Hardman, J. G. (Academic Press, Inc., New York) pp. 5-93 (1975).
# After 4 days in culture, the cells were washed and incubated for 4 hours in Dulbecco modified Eagle's medium in the presence or absence of graded doses of each analog or somatostatin. The medium was then collected for subsequent growth hormone determination by a double antibody radioimmunoassay for rat growth hormone.
# insulin = assay: Insulin inhibition in vivo: portal vein insulin in anesthetized rats; set-up: species or system rat; conditions: multiples or fractions of the effect of somatostatin (=1), via external jugular vein, portal vein blood after 5 minutes
# Procedure: Analogs of somatostatin were compared to somatostatin in their ability to decrease the levels of portal vein glucagon and insulin in anesthetized rats. Male Sprague-Dawley rats (Charles River CD) weighing 160-200 g were anethetized with urethane (150 mg/100 g of body weight; Aldrich). Saline or peptides were administered via the external jugular vein. After 5 minutes, the portal vein was exposed, and blood was collected via syringe containing 3 mg of EDTA and placed in chilled tubes containing 100 μl of Trasylol (FBA Pharmaceuticals) for subsequent hormone analysis. Plasma levels of glucagon were determined by the method of Faloona and Unger, Methods of Hormone Radioimmunoassay, Jaffe and Behrman (Eds), Academic Press, New York, Vol. II, pp. 257-527 (1976), utilizing glucagon antisera 30K obtained from R. Unger (Dallas, Tx). Plasma levels of insulin were determined by a modification of the procedure of Herbert et al., J. Clin. Endocrinol. Metab., 25, 1375-1384 (1965).
# [1] = test system: pentagastrin evoked gastric secretion; assay: Inhibition of pentagastrin evoked gastric secretion in the chronic fistula dog; assay type: in vivo; conditions: Dose 0.8 μg/ml./min., infusion 0-60 min, relative to placebo trial
# Procedure: Compounds were tested for their ability to inhibit pentagastrin evoked gastric secretion in the chronic fistula dog. Female beagle dogs with a chronic gastric fistula were given pentagastrin (2.5 μg./kg./hour, i.v. from -60 to 120 min.) and gastric outputs were collected via the fistula cannula. Samples were analyzed at 30 minute intervals for volume (ml.) and titratable acid (mEq/L) (Titration to pH 7 with 0.01 N NaOH); total acid output (mEq) was calculated as the production of output volume and acid concentration. Test compounds were infused at a constant rate from 0 to 60 minutes. Data have been expressed as percent change of total acid output relative to a placebo trial in the same animals.
smiles,measurement,setting,value
C[C@H](N)C(=O)NCC(=O)N[C@H]1CSSC[C@@H](C(=O)O)NC(=O)[C@H](CO)NC(=O)[C@H]([C@@H](C)O)NC(=O)[C@H](Cc2ccccc2)NC(=O)[C@H]([C@@H](C)O)NC(=O)[C@H](CCCCN)NC(=O)[C@H](Cc2c[nH]c3ccccc23)NC(=O)[C@H](Cc2ccccc2)NC(=O)[C@H](Cc2ccccc2)NC(=O)[C@H](CC(N)=O)NC(=O)[C@H](CCCCN)NC1=O [Somatostatin],Growth Hormone Release Inhibition In Vitro,growth hormone release,1
same,Insulin Inhibition In Vivo,insulin,1
same,Gastric Secretion % Inhibition Acid Concentration 0-30,[1]; interval 0-30 min,16%
same,Gastric Secretion % Inhibition Vol. 0-30,[1]; interval 0-30 min,85%
same,Gastric Secretion % Inhibition Acid Concentration 30-60,[1]; interval 30-60 min,77%
same,Gastric Secretion % Inhibition Vol. 30-60,[1]; interval 30-60 min,97%
same,Gastric Secretion % Inhibition Acid Concentration 60-90,[1]; interval 60-90 min,61%
same,Gastric Secretion % Inhibition Vol. 60-90,[1]; interval 60-90 min,81%
same,Gastric Secretion % Inhibition Acid Concentration 90-120,[1]; interval 90-120 min,14%
same,Gastric Secretion % Inhibition Vol. 90-120,[1]; interval 90-120 min,37%
